In brackets after ≈: the same amount, converted by molar mass.
How the values were obtained:
Format in all cases: functional
Acinetobacter pittii [1] = assay: Antibacterial activity against Acinetobacter genomosp. 3 isolates assessed as percent of resistance isolates by broth micro dilution
Acinetobacter pittii [2] = assay: Antibacterial activity against Acinetobacter genomosp. 3 isolates by broth micro dilution
Enterobacteriaceae [3] = assay: Antibacterial activity against Enterobacteriaceae assessed as intermediate breakpoint by CLSI method
Enterobacteriaceae [4] = assay: Antibacterial activity against Enterobacteriaceae assessed as resistant breakpoint by CLSI method
Enterobacteriaceae [5] = assay: Antibacterial activity against Enterobacteriaceae assessed as susceptibility breakpoint by CLSI method
Acinetobacter pittii [6] = assay: Antibacterial activity against Pulsotype I Acinetobacter genomosp. 3 isolate 11 containing IMP-1, OXA-58, ADC-18, ISAba1, ISAba3, IS1008, intI1 genetic elements by broth micro dilution
Acinetobacter pittii [7] = assay: Antibacterial activity against Pulsotype B Acinetobacter genomosp. 3 isolate 8 containing IMP-1, OXA-58, ADC-18, ISAba1, ISAba3, IS1008, intI1 genetic elements by broth micro dilution
Acinetobacter pittii [8] = assay: Antibacterial activity against Pulsotype M Acinetobacter genomosp. 3 isolate 5 containing IMP-1, OXA-58, ADC-43, ISAba2, ISAba3, IS1008, intI1 genetic elements by broth micro dilution
Acinetobacter pittii [9] = assay: Antibacterial activity against Pulsotype D Acinetobacter genomosp. 3 isolate 18 containing IMP-1, OXA-58, ADC-18, ISAba1, ISAba3, repAcil, IS1008, intI1 genetic elements by broth micro dilution
Acinetobacter pittii [10] = assay: Antibacterial activity against Pulsotype L Acinetobacter genomosp. 3 isolate 2 containing IMP-8, OXA-58, ADC-43, ISAba1, ISAba3, IS1008, intI1 genetic elements by broth micro dilution
Acinetobacter pittii [11] = assay: Antibacterial activity against Pulsotype F Acinetobacter genomosp. 3 isolate 4 containing IMP-1, OXA-58, ADC-18, ISAba1, ISAba3, IS18, IS1008, intI1 genetic elements by broth micro dilution
Acinetobacter pittii [12] = assay: Antibacterial activity against Pulsotype I Acinetobacter genomosp. 3 isolate 10 containing IMP-1, OXA-58, ADC-18, ISAba1, ISAba3, IS1008, intI1 genetic elements by broth micro dilution
Acinetobacter pittii [13] = assay: Antibacterial activity against Pulsotype K Acinetobacter genomosp. 3 isolate 6 containing IMP-1, OXA-58, ADC-18, ISAba1, ISAba3, IS1008, intI1 genetic elements by broth micro dilution
Acinetobacter pittii [14] = assay: Antibacterial activity against Pulsotype L Acinetobacter genomosp. 3 isolate 7 containing IMP-1, OXA-58, ADC-18, ISAba1, ISAba3, IS1008, intI1 genetic elements by broth micro dilution
Acinetobacter pittii [15] = assay: Antibacterial activity against Pulsotype C Acinetobacter genomosp. 3 isolate 1 containing IMP-1, OXA-58, ADC-18, ISAba1, ISAba3, IS1008, intI1 genetic elements by broth micro dilution
Acinetobacter pittii [16] = assay: Antibacterial activity against Pulsotype J Acinetobacter genomosp. 3 isolate 15 containing IMP-1, OXA-58, ADC-18, ISAba1, ISAba3, IS1008, intI1 genetic elements by broth micro dilution
Acinetobacter pittii [17] = assay: Antibacterial activity against Pulsotype K Acinetobacter genomosp. 3 isolate 6 containing IMP-1, OXA-58, ADC-18, ISAba1, ISAba3, IS1008, intI1 genetic elements by agar dilution method
Acinetobacter pittii [18] = assay: Antibacterial activity against Pulsotype L Acinetobacter genomosp. 3 isolate 7 containing IMP-1, OXA-58, ADC-18, ISAba1, ISAba3, IS1008, intI1 genetic elements by agar dilution method
Acinetobacter pittii [19] = assay: Antibacterial activity against Pulsotype M Acinetobacter genomosp. 3 isolate 5 containing IMP-1, OXA-58, ADC-43, ISAba2, ISAba3, IS1008, intI1 genetic elements by agar dilution method
Acinetobacter pittii [20] = assay: Antibacterial activity against Acinetobacter genomosp. 3 isolates assessed as percent of resistance isolates by agar dilution method
Acinetobacter pittii [21] = assay: Antibacterial activity against Pulsotype C Acinetobacter genomosp. 3 isolate 1 containing IMP-1, OXA-58, ADC-18, ISAba1, ISAba3, IS1008, intI1 genetic elements by agar dilution method
Acinetobacter pittii [22] = assay: Antibacterial activity against Pulsotype I Acinetobacter genomosp. 3 isolate 10 containing IMP-1, OXA-58, ADC-18, ISAba1, ISAba3, IS1008, intI1 genetic elements by agar dilution method
Acinetobacter pittii [23] = assay: Antibacterial activity against Acinetobacter genomosp. 3 isolates by agar dilution method
Acinetobacter pittii [24] = assay: Antibacterial activity against Pulsotype I Acinetobacter genomosp. 3 isolate 11 containing IMP-1, OXA-58, ADC-18, ISAba1, ISAba3, IS1008, intI1 genetic elements by agar dilution method
Acinetobacter pittii [25] = assay: Antibacterial activity against Pulsotype L Acinetobacter genomosp. 3 isolate 2 containing IMP-8, OXA-58, ADC-43, ISAba1, ISAba3, IS1008, intI1 genetic elements by agar dilution method
Acinetobacter pittii [26] = assay: Antibacterial activity against Pulsotype F Acinetobacter genomosp. 3 isolate 4 containing IMP-1, OXA-58, ADC-18, ISAba1, ISAba3, IS18, IS1008, intI1 genetic elements by agar dilution method
Acinetobacter pittii [27] = assay: Antibacterial activity against Pulsotype D Acinetobacter genomosp. 3 isolate 18 containing IMP-1, OXA-58, ADC-18, ISAba1, ISAba3, repAcil, IS1008, intI1 genetic elements by agar dilution method
Acinetobacter pittii [28] = assay: Antibacterial activity against Pulsotype B Acinetobacter genomosp. 3 isolate 8 containing IMP-1, OXA-58, ADC-18, ISAba1, ISAba3, IS1008, intI1 genetic elements by agar dilution method
Acinetobacter pittii [29] = assay: Antibacterial activity against Pulsotype J Acinetobacter genomosp. 3 isolate 15 containing IMP-1, OXA-58, ADC-18, ISAba1, ISAba3, IS1008, intI1 genetic elements by agar dilution method

Row | Compound | Activity (Acinetobacter pittii [1]) [%] | MIC50 (Acinetobacter pittii [2]) [µg/mL] | MIC90 (Acinetobacter pittii [2]) [µg/mL] | MIC (Acinetobacter pittii [6]) [µg/mL] | MIC (Acinetobacter pittii [7]) [µg/mL] | MIC (Acinetobacter pittii [8]) [µg/mL] | MIC (Acinetobacter pittii [9]) [µg/mL] | MIC (Acinetobacter pittii [10]) [µg/mL] | MIC (Acinetobacter pittii [11]) [µg/mL] | MIC (Acinetobacter pittii [12]) [µg/mL] | MIC (Acinetobacter pittii [13]) [µg/mL] | MIC (Acinetobacter pittii [14]) [µg/mL] | MIC (Acinetobacter pittii [15]) [µg/mL] | MIC (Acinetobacter pittii [16]) [µg/mL] | further results
1 | NC[C@H]1O[C@H](O[C@H]2[C@H](O)[C@@H](O[C@H]3O[C@H](CO)[C@@H](O)[C@H](N)[C@H]3O)[C@H](N)C[C@@H]2N)[C@H](N)C[C@@H]1O [TOBRAMYCIN] | 42.1 | 8 (≈ 17.1 µM) | ≥ 16 |  |  |  |  |  |  |  |  |  |  |  | 
2 | CN(C)c1cc(NC(=O)CNC(C)(C)C)c(O)c2c1C[C@H]1C[C@H]3[C@H](N(C)C)C(O)=C(C(N)=O)C(=O)[C@@]3(O)C(O)=C1C2=O [TIGECYCLINE] | 0 | 0.12 (≈ 0.205 µM) | 0.5 (≈ 0.854 µM) |  |  |  |  |  |  |  |  |  |  |  | Activity (Enterobacteriaceae [3]): 4 µg/mL; Activity (Enterobacteriaceae [4]): >=8 ug ml-1; Activity (Enterobacteriaceae [5]): <=2 ug ml-1
3 | CCN1CCN(C(=O)N[C@@H](C(=O)N[C@@H]2C(=O)N3[C@@H]2SC(C)(C)[C@@H]3C(=O)O)c2ccccc2)C(=O)C1=O [PIPERACILLIN] | 63.2 | ≥ 128 | ≥ 128 | > 64 | > 64 | > 64 | 32 (≈ 61.8 µM) | > 64 | > 64 | > 64 | > 64 | > 64 | > 64 | > 64 | 
4 | C[C@@H](O)[C@H]1C(=O)N2C(C(=O)O)=C(S[C@@H]3CN[C@H](C(=O)N(C)C)C3)[C@H](C)[C@H]12 [MEROPENEM] | 57.9 | 16 (≈ 41.7 µM) | 32 (≈ 83.4 µM) | 16 (≈ 41.7 µM) | 16 (≈ 41.7 µM) | 16 (≈ 41.7 µM) | 32 (≈ 83.4 µM) | 16 (≈ 41.7 µM) | 64 (≈ 167 µM) | 32 (≈ 83.4 µM) | 32 (≈ 83.4 µM) | 16 (≈ 41.7 µM) | 16 (≈ 41.7 µM) | 32 (≈ 83.4 µM) | 
5 | GENTAMICIN | 52.6 | 8 | > 16 |  |  |  |  |  |  |  |  |  |  |  | 
6 | CO/N=C(\C(=O)N[C@@H]1C(=O)N2C(C(=O)O)=C(CSc3nc(=O)c(O)nn3C)CS[C@H]12)c1csc(N)n1 [CEFTRIAXONE] | 63.2 | ≥ 64 | ≥ 64 | > 32 | > 32 | > 32 | > 32 | > 32 | > 32 | > 32 | > 32 | > 32 | > 32 | > 32 | 
7 | C[C@@H](O)[C@H]1C(=O)N2C(C(=O)O)=C(SCCNC=N)C[C@H]12 [IMIPENEM ANHYDROUS] | 57.9 | 16 (≈ 53.4 µM) | 32 (≈ 107 µM) | 32 (≈ 107 µM) | 32 (≈ 107 µM) | 16 (≈ 53.4 µM) | 32 (≈ 107 µM) | 32 (≈ 107 µM) | 64 (≈ 214 µM) | 32 (≈ 107 µM) | 16 (≈ 53.4 µM) | 32 (≈ 107 µM) | 32 (≈ 107 µM) | 16 (≈ 53.4 µM) | 
8 | COLISTIN | 0 | 1 | 2 |  |  |  |  |  |  |  |  |  |  |  | 
9 | CC(C)(O/N=C(\C(=O)N[C@@H]1C(=O)N2C(C(=O)[O-])=C(C[n+]3ccccc3)CS[C@H]12)c1csc(N)n1)C(=O)O [CEFTAZIDIME] | 68.4 | ≥ 64 | ≥ 64 | > 32 | > 32 | > 32 | > 32 | > 32 | > 32 | > 32 | > 32 | > 32 | > 32 | > 32 | 
10 | CO/N=C(\C(=O)N[C@@H]1C(=O)N2C(C(=O)[O-])=C(C[N+]3(C)CCCC3)CS[C@H]12)c1csc(N)n1 [CEFEPIME] | 63.2 | ≥ 32 | ≥ 32 | > 16 | > 16 | > 16 | > 16 | > 16 | > 16 | > 16 | > 16 | > 16 | > 16 | > 16 | 
11 | NCC[C@H](O)C(=O)N[C@@H]1C[C@H](N)[C@@H](O[C@H]2O[C@H](CN)[C@@H](O)[C@H](O)[C@H]2O)[C@H](O)[C@H]1O[C@H]1O[C@H](CO)[C@@H](O)[C@H](N)[C@H]1O [AMIKACIN] | 52.6 | 32 (≈ 54.6 µM) | ≥ 64 |  |  |  |  |  |  |  |  |  |  |  | 
12 | O=C(O)c1cn(C2CC2)c2cc(N3CCNCC3)c(F)cc2c1=O [CIPROFLOXACIN] | 5.3 | 0.25 (≈ 0.754 µM) | 2 (≈ 6.04 µM) |  |  |  |  |  |  |  |  |  |  |  | 
13 | CC1(C)[C@H](C(=O)O)N2C(=O)C[C@H]2S1(=O)=O [SULBACTAM] |  |  |  |  |  |  |  |  |  |  |  |  |  |  | MIC (Acinetobacter pittii [17]): 4 µg/mL (≈ 17.1 µM); MIC (Acinetobacter pittii [18]): 4 µg/mL (≈ 17.1 µM); MIC (Acinetobacter pittii [19]): 2 µg/mL (≈ 8.57 µM); Activity (Acinetobacter pittii [20]): 0%; MIC (Acinetobacter pittii [21]): 4 µg/mL (≈ 17.1 µM); MIC (Acinetobacter pittii [22]): 4 µg/mL (≈ 17.1 µM); MIC50 (Acinetobacter pittii [23]): 2 µg/mL (≈ 8.57 µM); MIC90 (Acinetobacter pittii [23]): 4 µg/mL (≈ 17.1 µM); MIC (Acinetobacter pittii [24]): 4 µg/mL (≈ 17.1 µM); MIC (Acinetobacter pittii [25]): 4 µg/mL (≈ 17.1 µM); MIC (Acinetobacter pittii [26]): 2 µg/mL (≈ 8.57 µM); MIC (Acinetobacter pittii [27]): 4 µg/mL (≈ 17.1 µM); MIC (Acinetobacter pittii [28]): 2 µg/mL (≈ 8.57 µM); MIC (Acinetobacter pittii [29]): 4 µg/mL (≈ 17.1 µM)
14 | C[C@H]1[C@H](NC(=O)/C(=N\OC(C)(C)C(=O)O)c2csc(N)n2)C(=O)N1S(=O)(=O)O [AZTREONAM] | 94.7 | ≥ 32 | ≥ 32 | > 16 | > 16 | > 16 | > 16 | > 16 | > 16 | > 16 | > 16 | > 16 | > 16 | > 16 | 

Reference: ChEMBL document CHEMBL1255492, “Molecular characterization of beta-lactamase genes and their genetic structures in Acinetobacter genospecies 3 isolates in Taiwan” (2010)
